The values that follow come from patent US7605156B2, “Methods for the use of inhibitors of cytosolic phospholipase A2” (Wyeth, priority 2001, dated 2009).

For data set [1], the system named is B6 mice. Briefly: Experimental autoimmune encephalomyelitis (EAE), animal model of multiple sclerosis. Type of data set: in vivo. The note with it: orally, 100 mg/kg, twice/day. How it is done: Six groups of B6 mice were immunized with MOG/CFA and injected with pertussis toxin to induce experimental autoimmune encephalomyelitis (EAE), an animal model of Multiple sclerosis. […] Another three groups of mice were treated with vehicle, Compound A or Compound B starting on the day of EAE onset (day 15) (orally, 100 mg/kg, twice/day). […] The results are shown in FIG. 1, wherein mean clinical score is a mean of clinical evaluation of each animal for that particular day. Animals are scored as follows: • 0 no clinical signs of EAE (no paralysis) • 1—paralysis of tail • 2—paralysis of tail and partial hind leg paralysis • 3—paralysis of tail And complete hind leg paralysis • 4—paralysis of tail, complete hind leg paralysis and a partial front leg paralysis • 5—moribund animal (all four limbs paralyzed, lack of responsiveness, these mice were immediately euthanized).

Data set [2] deals with ApoE KO mice. Briefly: ApoE knockout mouse model of atherosclerosis. Type of data set: in vivo. The conditions noted are these: 3.3 mg/g in chow, 20 weeks.
For data set [3], the target named is T1, cPLA2 (Homo sapiens, UniProt P47712).
T1 sequence (P47712 1-749): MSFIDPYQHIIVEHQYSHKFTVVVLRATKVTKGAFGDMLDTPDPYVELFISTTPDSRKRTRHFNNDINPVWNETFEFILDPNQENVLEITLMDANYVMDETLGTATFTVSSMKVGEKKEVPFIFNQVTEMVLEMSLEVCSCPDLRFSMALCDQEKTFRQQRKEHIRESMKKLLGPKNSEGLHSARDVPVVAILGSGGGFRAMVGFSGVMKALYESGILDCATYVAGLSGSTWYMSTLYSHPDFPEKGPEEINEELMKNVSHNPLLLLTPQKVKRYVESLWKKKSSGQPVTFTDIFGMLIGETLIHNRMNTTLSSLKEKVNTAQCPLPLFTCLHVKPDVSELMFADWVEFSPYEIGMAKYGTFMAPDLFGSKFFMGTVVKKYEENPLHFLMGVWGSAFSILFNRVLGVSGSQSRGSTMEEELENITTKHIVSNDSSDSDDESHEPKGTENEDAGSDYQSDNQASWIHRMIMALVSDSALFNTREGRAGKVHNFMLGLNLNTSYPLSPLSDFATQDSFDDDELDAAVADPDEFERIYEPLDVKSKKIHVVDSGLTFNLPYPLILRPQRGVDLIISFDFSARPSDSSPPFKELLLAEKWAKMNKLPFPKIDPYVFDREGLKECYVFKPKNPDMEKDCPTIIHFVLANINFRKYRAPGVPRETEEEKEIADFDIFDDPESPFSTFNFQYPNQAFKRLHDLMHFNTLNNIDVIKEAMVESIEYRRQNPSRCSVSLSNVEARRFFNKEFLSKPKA
Briefly: Coumarine assay (hydrolysis of 7-hydroxycoumarinyl 6-heptenoate). The data set is classed as biochemical. The note with it: 60 μM 7-hydroxycoumarinyl 6-heptenoate, pH 7.5; read-out: Coumarin IC50.

A word on the melting point: it is the temperature of the solid-liquid transition. Usually IC50 stands for the concentration needed to halve the response being measured.

As for `O=C(O)c1ccc(OCCc2c(CCNS(=O)(=O)Cc3ccc(Cl)c(Cl)c3)n(C(c3ccccc3)c3ccccc3)c3ccc(Cl)cc23)cc1` [Example 10, 4-{2-[1-Benzhydryl-5-chloro-2-(2-{[(3,4-dichlorobenzyl)sulfonyl]amino}-ethyl)-1H-indol-3-yl]ethoxy}benzoic acid], the “EAE clinical score: prevention of EAE” value in data set [1] (from the day of immunization) is on record as “prevent EAE”. Moreover, the “EAE clinical score: clinical severity of EAE” value in data set [1] (starting on the day of EAE onset (day 15)) was “reduce clinical severity of EAE”. For `O=C(O)c1ccc(CCCc2c(CCNS(=O)(=O)Cc3ccc(Cl)c(Cl)c3)n(C(c3ccccc3)c3ccccc3)c3ccc(Cl)cc23)cc1` [Example 44], the “atherosclerotic plaque burden at the aortic sinus” value in data set [2] stood at 282697±146462 μm^2. In addition, the “decrease of atherosclerotic plaque burden at the aortic sinus” value in data set [2] (vs control animals, p<0.001) came to 45.6%. On to `CC(C)(Cc1ccc(S(=O)(=O)CCc2c(CCNS(=O)(=O)Cc3ccc(Cl)c(Cl)c3)n(C(c3ccccc3)c3ccccc3)c3ccc(Cl)cc23)cc1)C(=O)O` [Example 298, 3-[4-({2-[1-benzhydryl-5-chloro-2-(2{[(3,4-dichlorobenzyl)sulfonyl]amino}ethyl)-1H-indol-3-yl]ethyl}sulfonyl)phenyl]-2,2-dimethylpropanoic acid], for which the melting point lay within 207 to 208 °C. In addition, the IC50 in data set [3] was 0.19 µM. The like results for `O=C(O)c1ccc(OCCc2c(CCNS(=O)(=O)Cc3ccccc3Cl)n(C(c3ccccc3)c3ccccc3)c3ccc(Cl)cc23)cc1F` [Example 297, 4-{2-[1-benzhydryl-5-chloro-2-(2-{[(2-chlorobenzyl)sulfonyl]amino}ethyl)-1H-indol-3-yl]ethoxy}-2-fluorobenzoic acid] were, in that order, 132 to 135 °C and 0.3 µM. On the same counts, the results for `O=C(O)c1ccc(OCCc2c(CCNS(=O)(=O)Cc3ccc(Cl)c(Cl)c3)n(C(c3ccccc3)c3ccccc3)c3ccc(Cl)cc23)cc1F` [Example 296, 4-{2-[1-benzhydryl-5-chloro-2-(2-{[(3,4-dichlorobenzyl)sulfonyl]amino}ethyl)-1H-indol-3-yl]ethoxy}-2-fluorobenzoic acid] are 117 to 119 °C and 0.32 µM. Turning to `COc1cc(C)ccc1S(=O)(=O)NCCc1c(CCOc2ccc(C(=O)O)cc2)c2cc(Cl)ccc2n1C(c1ccccc1)c1ccccc1` [Example 171, 4-{2-[1-benzhydryl-5-chloro-2-(2-{[(2-methoxy-4-methylphenyl)sulfonyl]amino}ethyl)-1H-indol-3-yl]ethoxy}benzoic acid], the IC50 in data set [3] was determined as 0.36 µM.

On to `O=C(O)c1ccc(OCCc2c(CCNS(=O)(=O)c3ccccc3-c3ccccc3)n(C(c3ccccc3)c3ccccc3)c3ccc(Cl)cc23)cc1` [Example 164, 4-[2-(1-benzhydryl-2-{2-[(1,1′-biphenyl-2-ylsulfonyl)amino]ethyl}-5-chloro-1H-indol-3-yl)ethoxy]benzoic acid], for which the IC50 in data set [3] is 0.2 µM.

On to “4-(2-{1-benzhydryl-5-chloro-2-[2-({[(5,6-dichloropyridine-2-yl)methyl]sulfonyl}amino)ethyl]-1H-indol-3-yl}ethoxy)benzoic acid [Example 76]”, for which the IC50 in data set [3] came to 0.4 µM. In the case of `Cc1nc(S(=O)(=O)NCCc2c(CCOc3ccc(C(=O)O)cc3)c3cc(Cl)ccc3n2C(c2ccccc2)c2ccccc2)cn1C` [Example 258, 4-{2-[1-benzhydryl-5-chloro-2-(2-{[(1,2-dimethyl-1H-imidazol-4-yl)sulfonyl]amino}ethyl)-1H-indol-3-yl]ethoxy}benzoic acid], the IC50 in data set [3] is 0.8 µM. Same read-out and setting: as for `COc1ccc(S(=O)(=O)NCCc2c(CCOc3ccc(C(=O)O)cc3)c3cc(Cl)ccc3n2C(c2ccccc2)c2ccccc2)c([N+](=O)[O-])c1` [Example 197, 4-(2-{1-Benzhydryl-5-chloro-2-[2-(4-methoxy-2-nitro-benzenesulfonylamino)-ethyl]-1H-indol-3-yl}-ethoxy)-benzoic acid], the figure is 0.4 µM; as for `Cc1c(Cl)cccc1S(=O)(=O)NCCc1c(CCCc2ccc(C(=O)O)cc2)c2cc(Cl)ccc2n1C(c1ccccc1)c1ccccc1` [Example 240, 4-{3-[1-benzhydryl-5-chloro-2(2-{[(3-chloro-2-methylphenyl)sulfonyl]amino}ethyl)-1H-indol-3-yl]propyl}benzoic acid], 0.32 µM; as for `O=C(O)c1ccc(OCCc2c(CCNS(=O)(=O)c3ccccc3OCc3ccccc3)n(C(c3ccccc3)c3ccccc3)c3ccc(Cl)cc23)cc1` [Example 184, 4-(2-{1-Benzhydryl-2-[2-(2-benzyloxy-benzenesulfonylamino)-ethyl]-5-chloro-1H-indol-3-yl}-ethoxy)benzoic acid], 0.35 µM. The same measure, in the same setting: as for `O=C(O)c1ccc(CCCc2c(CCNS(=O)(=O)c3c(F)cc(F)cc3F)n(C(c3ccccc3)c3ccccc3)c3ccc(Cl)cc23)cc1` [Example 199, 4-(3-{1-Benzhydryl-5-chloro-2-[2-(2,4,6-trifluoro-benzenesulfonylamino)-ethyl]-1H-indol-3-yl}-propyl)-benzoic acid], the figure is 0.45 µM.
